Patent US20100022018A1 (priority 2006, published 2010)
Like-named read-outs stand apart in the source and are kept apart here.

What was measured:
Type in all cases: biochemical
[1] = biological target: T1, papain inactivated by methyl methanethiolsulfonate (Carica papaya, UniProt P00784)
T1 construct: purchased Sigma Chemical Company (St. Louis, Mo.)
T1 sequence (P00784 134-345): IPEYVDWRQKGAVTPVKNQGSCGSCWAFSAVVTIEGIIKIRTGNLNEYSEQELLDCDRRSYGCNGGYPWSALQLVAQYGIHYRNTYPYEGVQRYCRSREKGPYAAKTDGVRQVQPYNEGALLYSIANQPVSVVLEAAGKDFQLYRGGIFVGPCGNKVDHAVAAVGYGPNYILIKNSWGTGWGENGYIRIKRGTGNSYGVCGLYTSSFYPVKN

[2] = biological target: T2, papain inactivated by 2,2′-dithiobis-pyridine (Carica papaya, UniProt P00784)
T2 construct: purchased Sigma Chemical Company (St. Louis, Mo.)
T2 sequence (P00784 134-345): T1 sequence (P00784 134-345)

[3] = biological target: T3, papain inactivated by 4,4′-dithiobis-pyridine (Carica papaya, UniProt P00784)
T3 construct: purchased Sigma Chemical Company (St. Louis, Mo.)
T3 sequence (P00784 134-345): T1 sequence (P00784 134-345)

papain [4] = biological target: T4, papain (Carica papaya, UniProt P00784); assay: Background activity of papain inactivated by disulfide-forming reagents; conditions: compared with papain inactivated with methyl methanethiolsulfonate
T4 construct: purchased Sigma Chemical Company (St. Louis, Mo.)
T4 sequence (P00784 134-345): T1 sequence (P00784 134-345)

papain [5] = biological target: T4, papain; assay: Inactivation of activated papain by metal salts; conditions: metal salt added to equal 1.1× the molar amount of papain
From the text: Papain was activated as described above, and the DTT was removed by gel filtration using G-25. Papain was then inactivated by adding a slight molar excess of a mono, di, tri, or tetra valent metal. […] The inhibition by the metals was essentially instantaneous.
This papain was used to assay H2S as follows.

[6] = compared with papain inhibited by methyl methanethiolsulfonate
[7] = 50 pmoles of DTT added, turnover of 600/min

In the case of sodium sulfide, the “molecules of activator for every one molecule of papain activated” value [1] is reported as ~5, the “efficiency of reactivation of inactivated papain” value (shortened to “efficiency”) [2] is reported as “somewhat more efficient” and the “efficiency” value [3] is reported as “somewhat more efficient”.
`c1ccc(SSc2ccccn2)nc1` [2,2′-dithiobis-pyridine] was tested, and the “background level of activity exhibited by the inactivated papain” value (papain [4]) was “higher than papain inactivated with methyl methanethiolsulfonate”.
In the case of `[Cl][Hg][Cl]` [HgCl2], the “inhibition of the activity of the activated papain” value (papain [5]) is reported as > 99.9%.
In the case of `O=[N+]([O-])[O-].[Ag+]` [AgNO3], the “inhibition of the activity of the activated papain” value (papain [5]) is reported as > 99.5%.
For `N[C@@H](CS)C(=O)O` [Cysteine, cysteine], the “Δ A410/min” value ([1]; 20 picomoles added, 1 min incubation) was 0.45 min⁻¹, the “Δ A410/min” value ([1]; 50 picomoles added, 1 min incubation) was 1.1 min⁻¹ and the “molecules of papain activated for each molecule of activator” value ([1]; disulfide linkage inactivated papain) was < 1. For the same molecule, the “efficiency” value [2, 6] was “somewhat more efficient” and the “efficiency” value [3, 6] was “somewhat more efficient”.
With `O[C@H](CS)[C@H](O)CS` (racemic) [DTT, dithiothreitol] the “rate of appearance of p-nitroanaline” value [1] was 0.00026 M/min, the “amount of active papain in 200 μl” value [1, 7] was 72 pmol and the “concentration of active papain needed to generate product at this rate” value [1, 7] was 360 nM. The “Δ A410/min” value ([1]; 10 picomoles of DTT added, 1 minute incubation at 25° C., Tris pH 8.0) was 0.52 min⁻¹, the “Δ A410/min” value ([1]; 20 picomoles of DTT added, 1 minute incubation at 25° C., Tris pH 8.0) was 0.96 min⁻¹ and the “Δ A410/min” value ([1]; 50 picomoles of DTT added, 1 minute incubation at 25° C., Tris pH 8.0) was 1.9 min⁻¹.
In the case of `c1cc(SSc2ccncc2)ccn1` [4,4′-dithiobis-pyridine], the “background level of activity exhibited by the inactivated papain” value (papain [4]) is reported as “higher than papain inactivated with methyl methanethiolsulfonate”.
